Measured values: ChEMBL document CHEMBL1133038, “New quinolinic derivatives as centrally active antioxidants” (Bioorg Med Chem Lett, 2000)

Columns and labels:
HT-22 [1] = experiment: The minimum tolerated concentration by MTT reduction assay in HT-22 hippocampal cell line.; format: functional, Mus musculus
HT-22 [2] = experiment: The concentration producing 50% protection against L-HCA-mediated neurotoxicity in HT-22 hippocampal cell line.; format: functional, Mus musculus
HT-22 [3] = experiment: The concentration producing 50% toxicity in HT-22 hippocampal cell line.; format: functional; conditions: Mus musculus, read-out: TC50 (the source's name)
HT-22 [4] = experiment: Safety ratio of MTC to that of PC50; format: functional, Mus musculus
Mus musculus [5] = experiment: Body temperature of NMRI mice after 30 minutes of intraperitoneal administration of 150 mg/kg compound.; format: functional
Mus musculus [6] = experiment: Percent survival of NMRI mice after 5 hours of intraperitoneal administration of 150 mg/kg of compound.; format: functional; conditions: ip
Mus musculus [7] = experiment: The compound was tested for % survival of NMRI mice after 5 hours of intraperitoneal administration of 150 mg/kg of dose; 30/60; format: functional; conditions: ip
[8] = Safety ratio of MTC to that of PC50; Not relevant; format: toxicity

## C1=CC2(CCCCC2)Nc2ccc(Oc3ccccc3)cc21
HT-22 [1]
  MTC: 10 µM
HT-22 [2]
  PC50: 4.75 µM
HT-22 [3]
  CC50: 11.2 µM
HT-22 [4]
  Ratio: 2.1

## COc1ccc2c(c1)C=CC1(CCCCC1)N2
HT-22 [1]
  MTC: 5 µM
HT-22 [2]
  PC50: 0.49 µM
HT-22 [3]
  CC50: 46.9 µM
Mus musculus [5]
  change in body temperature: -1 °C
Mus musculus [6]
  survival at 150 mg/kg: 100%
HT-22 [4]
  Ratio: 10

## CC(C)(C)Oc1ccc2c(c1)C=CC1(CCCCC1)N2
HT-22 [1]
  MTC: 10 µM
HT-22 [2]
  PC50: 0.13 µM
HT-22 [3]
  CC50: 13.2 µM
Mus musculus [5]
  change in body temperature: -0.2 °C
Mus musculus [6]
  survival at 150 mg/kg: 30%
HT-22 [4]
  Ratio: 77

## CC(C)(C)/[N+]([O-])=C/c1ccccc1
HT-22 [1]
  MTC: >200 µM
HT-22 [2]
  PC50: >200 µM
Mus musculus [5]
  change in body temperature: -2.1 °C
Mus musculus [7]
  survival at 150 mg/kg: 50%
[8]
  Ratio: Not relevant

## CCOc1c(C(C)C)cc2c(c1C(C)C)CCC(C)(C)N2
HT-22 [1]
  MTC: 10 µM
HT-22 [2]
  PC50: 0.06 µM
HT-22 [3]
  CC50: 18.2 µM
Mus musculus [5]
  change in body temperature: -0.5 °C
Mus musculus [6]
  survival at 150 mg/kg: 40%
HT-22 [4]
  Ratio: 167

## CCOc1ccc2c(c1)CCC1(CCCCC1)N2
HT-22 [1]
  MTC: 25 µM
HT-22 [2]
  PC50: 0.16 µM
HT-22 [3]
  CC50: 74.5 µM
Mus musculus [5]
  change in body temperature: -0.7 °C
Mus musculus [6]
  survival at 150 mg/kg: 60%
HT-22 [4]
  Ratio: 156

## CCOc1c(C)cc2c(c1C)CCC(C)(C)N2
HT-22 [1]
  MTC: 100 µM
HT-22 [2]
  PC50: 0.16 µM
HT-22 [3]
  CC50: 186 µM
Mus musculus [5]
  change in body temperature: -0.5 °C
Mus musculus [6]
  survival at 150 mg/kg: 80%
HT-22 [4]
  Ratio: 625

## CCOc1c(C)c(C)c2c(c1C)CCC(C)(C)N2
HT-22 [1]
  MTC: 50 µM
HT-22 [2]
  PC50: 0.2 µM
HT-22 [3]
  CC50: 128 µM
Mus musculus [5]
  change in body temperature: -0.2 °C
Mus musculus [6]
  survival at 150 mg/kg: 100%
HT-22 [4]
  Ratio: 250

## CCOc1c(C)cc2c(c1C)C=CC(C)(C)N2
HT-22 [1]
  MTC: 50 µM
HT-22 [2]
  PC50: 0.35 µM
HT-22 [3]
  CC50: 182 µM
Mus musculus [5]
  change in body temperature: -0.9 °C
Mus musculus [6]
  survival at 150 mg/kg: 100%
HT-22 [4]
  Ratio: 143

## CCOc1c(C)cc2c(c1C)CCC1(CCCCC1)N2
HT-22 [1]
  MTC: 10 µM
HT-22 [2]
  PC50: 0.01 µM
HT-22 [3]
  CC50: 17.6 µM
Mus musculus [5]
  change in body temperature: -2.2 °C
Mus musculus [6]
  survival at 150 mg/kg: 80%
HT-22 [4]
  Ratio: 1000

## VITAMIN E
HT-22 [1]; Mus musculus
  MTC: > 200 µM
HT-22 [2]; Mus musculus
  PC50: 0.8 µM
HT-22 [4]; Mus musculus
  Ratio: > 250

## CCOc1c(C)c(C)c2c(c1C)CCC1(CCCCC1)N2
HT-22 [1]
  MTC: 10 µM
HT-22 [2]
  PC50: 0.15 µM
HT-22 [3]
  CC50: 17.2 µM
Mus musculus [5]
  change in body temperature: -0.8 °C
Mus musculus [6]
  survival at 150 mg/kg: 60%
HT-22 [4]
  Ratio: 67

## CCOc1c(C)cc2c(c1C)C=CC1(CCCCC1)N2
HT-22 [1]
  MTC: 10 µM
HT-22 [2]
  PC50: 0.03 µM
HT-22 [3]
  CC50: 19.3 µM
Mus musculus [5]
  change in body temperature: -0.3 °C
Mus musculus [6]
  survival at 150 mg/kg: 70%
HT-22 [4]
  Ratio: 333

## CCOc1cccc2c1NC1(C=C2)CCCCC1
HT-22 [1]
  MTC: 10 µM
HT-22 [2]
  PC50: 0.37 µM
HT-22 [3]
  CC50: 17.9 µM
Mus musculus [5]
  change in body temperature: -1 °C
Mus musculus [6]
  survival at 150 mg/kg: 60%
HT-22 [4]
  Ratio: 27

## CCOc1c(C)c(C)c2c(c1C)C=CC(C)(C)N2
HT-22 [1]
  MTC: 50 µM
HT-22 [2]
  PC50: 0.46 µM
HT-22 [3]
  CC50: 123 µM
Mus musculus [5]
  change in body temperature: -2.5 °C
Mus musculus [6]
  survival at 150 mg/kg: 70%
HT-22 [4]
  Ratio: 109

## CCOc1ccc2c(c1)C=CC1(CCNCC1)N2
HT-22 [1]
  MTC: 10 µM
HT-22 [2]
  PC50: 0.51 µM
HT-22 [3]
  CC50: 139 µM
HT-22 [4]
  Ratio: 20

## CCOc1c(C(C)(C)C)cc2c(c1C(C)(C)C)C=CC(C)(C)N2
HT-22 [1]
  MTC: 25 µM
HT-22 [2]
  PC50: 0.1 µM
HT-22 [3]
  CC50: 36.5 µM
Mus musculus [5]
  change in body temperature: -1 °C
Mus musculus [6]
  survival at 150 mg/kg: 60%
HT-22 [4]
  Ratio: 250

## CCOc1c(C(C)C)cc2c(c1C(C)C)C=CC(C)(C)N2
HT-22 [1]
  MTC: 10 µM
HT-22 [2]
  PC50: 0.07 µM
HT-22 [3]
  CC50: 200 µM
Mus musculus [5]
  change in body temperature: -0.05 °C
Mus musculus [6]
  survival at 150 mg/kg: 50%
HT-22 [4]
  Ratio: 143

## CCOc1ccc2c(c1)C(C)=CC(C)(C)N2 [E324]
HT-22 [1]
  MTC: 50 µM
HT-22 [2]
  PC50: 0.41 µM
HT-22 [3]
  CC50: 103 µM
Mus musculus [5]
  change in body temperature: -1.85 °C
Mus musculus [6]
  survival at 150 mg/kg: 80%
HT-22 [4]
  Ratio: 122

## CCOc1cccc2c1NC(C)(C)C=C2
HT-22 [1]
  MTC: 100 µM
HT-22 [2]
  PC50: 1 µM
HT-22 [3]
  CC50: 200 µM
HT-22 [4]
  Ratio: 100

## CCOc1ccc2c(c1)C=CC1(CCCCC1)N2
HT-22 [1]
  MTC: 5 µM
HT-22 [2]
  PC50: 0.18 µM
HT-22 [3]
  CC50: 17.1 µM
Mus musculus [5]
  change in body temperature: -0.2 °C
Mus musculus [6]
  survival at 150 mg/kg: 80%
HT-22 [4]
  Ratio: 28

## CC1=NN(c2ccccc2)C(=O)C1 [EDARAVONE]
HT-22 [1]
  MTC: 200 µM
HT-22 [2]
  PC50: 70.4 µM
HT-22 [3]
  CC50: > 200 µM
Mus musculus [5]
  change in body temperature: -2.4 °C
Mus musculus [6]
  survival at 150 mg/kg: 80%
HT-22 [4]
  Ratio: 2.8

## CCOc1ccc2c(c1)C=CC1(CCN(CC3CC3)CC1)N2
HT-22 [1]
  MTC: 200 µM
HT-22 [2]
  PC50: 0.77 µM
HT-22 [3]
  CC50: 200 µM
HT-22 [4]
  Ratio: 260

## CCOc1ccc2c(c1)C=CC(C)(C)N2
HT-22 [1]
  MTC: 25 µM
HT-22 [2]
  PC50: 0.19 µM
HT-22 [3]
  CC50: 56 µM
Mus musculus [5]
  change in body temperature: -1.7 °C
Mus musculus [6]
  survival at 150 mg/kg: 100%
HT-22 [4]
  Ratio: 132

## CC(C)(C)C(=O)Oc1ccc2c(c1)C=CC1(CCCCC1)N2
HT-22 [1]
  MTC: 1 µM
HT-22 [2]
  PC50: 0.73 µM
HT-22 [3]
  CC50: 1.61 µM
Mus musculus [5]
  change in body temperature: -2.8 °C
Mus musculus [6]
  survival at 150 mg/kg: 30%
HT-22 [4]
  Ratio: 1.4

## CCOc1ccc2c(c1)C(C)CC(C)(C)N2 (stereo not drawn)
HT-22 [1]
  MTC: 50 µM
HT-22 [2]
  PC50: 0.86 µM
HT-22 [3]
  CC50: 137 µM
HT-22 [4]
  Ratio: 58

## CCOc1c(C(C)C)cc2c(c1C(C)C)C=CC1(CCCCC1)N2
HT-22 [1]
  MTC: 10 µM
HT-22 [2]
  PC50: 0.12 µM
HT-22 [3]
  CC50: 16.9 µM
HT-22 [4]
  Ratio: 83

## CCOc1c(C)c(C)c2c(c1C)C=CC1(CCCCC1)N2
HT-22 [1]
  MTC: 10 µM
HT-22 [2]
  PC50: 0.17 µM
HT-22 [3]
  CC50: 17.8 µM
Mus musculus [5]
  change in body temperature: -0.8 °C
Mus musculus [6]
  survival at 150 mg/kg: 50%
HT-22 [4]
  Ratio: 59

## O=c1c2ccccc2[se]n1-c1ccccc1 [EBSELEN]
HT-22 [1]
  MTC: 10 µM
HT-22 [2]
  PC50: 1 µM
HT-22 [3]
  CC50: 20 µM
Mus musculus [5]
  change in body temperature: -1.85 °C
Mus musculus [6]
  survival at 150 mg/kg: 20%
HT-22 [4]
  Ratio: 10
